Laboratory results as given in patent US9958439B2, “Carbohydrate detection” (RICHTER LIFE SCIENCE DEVELOPMENT AB, priority 2012, dated 2018).
Where two headings read alike, the source gives them in different places.

Key:
[1] = Outline: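 LCO probes (3 μM) were added to serial two-fold dilutions of carbohydrate suspensions in dH2O, with excitation scanned 300–500 nm and emission at 545 nm. Detection was a reproducible λmax and/or RFU change versus no-carbohydrate control. RFU was regressed linearly against concentration at the λmax or the lowest-background excitation.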
[2] = remark: listed apart in the source
Outline: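 3 μM of each LCO probe was added to serial two-fold carbohydrate dilutions in water (10–0.039 or 5–0.019 mg/ml). Excitation spectra were scanned 300–500 nm with emission at 545 nm, in triplicate. Detection was defined as a reproducible shift in λmax and/or RFU versus negative control, with linear regression of RFU against concentration.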

[3] = for RFU change (Correlation analysis): probe-specific excitation λ, emission 545 nm
Outline: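 LCO probes at 3 μM mixed with serial two-fold dilutions of carbohydrate in dH2O (10–0.039 or 5–0.019 mg/ml, depending on carbohydrate), in triplicate. Excitation scanned 300–500 nm or fixed per probe (λmax or lowest background), emission at 545 nm. Detection taken as reproducible λmax/RFU shift vs no-carbohydrate control; RFU regressed linearly on concentration.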

[4] = for RFU change (Correlation analysis): probe-specific excitation λ, emission 545 nm; for Gradient Parameters (gradient of regression line) / Linear relationship / Quality of Gradient: linear regression
Outline: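 LCO probes at 3 μM mixed with serial twofold carbohydrate dilutions in dH2O (10–0.039 or 5–0.019 mg/ml, depending on carbohydrate). Excitation scanned 300–500 nm, emission read at 545 nm; detection defined as reproducible shift in λmax and/or RFU relative to negative control, with linear regression of RFU against concentration.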

[5] = remark: listed apart in the source
Outline: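 LCO probes at 3 μM mixed with serial two-fold carbohydrate dilutions in water (10–0.039 or 5–0.019 mg/ml), run in triplicate. Excitation scanned 300–500 nm with emission at 545 nm; detection based on reproducible λmax or RFU shift against the no-carbohydrate control, with linear regression of RFU on concentration.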

[6] = for RFU change (Correlation analysis) / RFU change (Signal deviation with increasing [Carbohydrate]) / λmax change: 3 μM probe; for RFU change (Correlation analysis): probe-specific excitation λ, emission 545 nm; for RFU change (Signal deviation with increasing [Carbohydrate]) / λmax change: spectral analysis, Excitation 300-500, Emission 545; for carbohydrate can be detected and/or differentiated by the LCO: conclusion from change in signal magnitude and/or shift in λmax; for Gradient Parameters (gradient of regression line) / Linear relationship / Quality of Gradient: linear regression
Outline: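 Each LCO probe at 3 μM was added to two-fold serial dilutions of carbohydrate in dH2O (10–0.039 mg/ml for β-1,3-glucan, cellulose, chitin; 5–0.019 mg/ml for the others), run in triplicate. Excitation spectra were scanned 300–500 nm with emission at 545 nm. Detection was a reproducible λmax and/or RFU shift versus negative control, with linear regression of RFU against concentration.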

[7] = sodium alginate concentration vs RFU, linear regression
[8] = Chondroitin Sulfate A 5-0.019 mg/ml, 3 μM probe, spectral analysis, Excitation 300-500, Emission 545
[9] = Chondroitin Sulfate A concentration vs RFU, linear regression
[10] = Cellulobiose 5-0.019 mg/ml, 3 μM probe, spectral analysis, Excitation 300-500, Emission 545
[11] = amylose concentration vs RFU, linear regression
[12] = cellulobiose concentration vs RFU, linear regression
[13] = Glycogen 5-0.019 mg/ml, 3 μM probe, spectral analysis, Excitation 300-500, Emission 545
[14] = glucose concentration vs RFU, linear regression
[15] = β-1,3-glucan concentration vs RFU

Cl.Cl.O=C(Cc1cc(-c2cccs2)sc1-c1ccc(-c2sc(-c3cccs3)cc2CC(=O)NCCc2c[nH]cn2)s1)NCCc1c[nH]cn1 [pHTA-His, penta Hydrogen Thiophene Acetic acid Histidine]
RFU change (Correlation analysis) ([1]; Sodium alginate 5-0.019 mg/ml, 3 μM probe, probe-specific excitation λ, emission 545 nm): Increases
RFU change (Signal deviation with increasing [Carbohydrate]) ([1]; Sodium alginate 5-0.019 mg/ml, 3 μM probe, spectral analysis, Excitation 300-500, Emission 545): Increases
carbohydrate can be detected and/or differentiated by the LCO ([1]; Sodium alginate, conclusion from change in signal magnitude and/or shift in λmax): can be detected and/or differentiated
Gradient Parameters (gradient of regression line) [1, 7]: 199.9 ± 36.3
Linear relationship [1, 7]: Significant
Quality of Gradient [1, 7]: Positive
Sensitivity ([1]; to sodium alginate): Yes
RFU change (Correlation analysis) ([2]; Chondroitin Sulfate A 5-0.019 mg/ml, 3 μM probe, probe-specific excitation λ, emission 545 nm): Increases
RFU change (Signal deviation with increasing [Carbohydrate]) [2, 8]: Increases
λmax change [2, 8]: Blueshift
Gradient Parameters (gradient of regression line) [2, 9]: 163.8 ± 20.77
Linear relationship [2, 9]: Significant
Quality of Gradient [2, 9]: Positive
carbohydrate can be detected and/or differentiated by the LCO ([2]; Chondroitin sulfate A, conclusion from change in signal magnitude and/or shift in λmax): can be detected and/or differentiated
Sensitivity ([2]; to Chondroitin Sulfate A): Yes
RFU change (Correlation analysis) ([3]; Amylose 5-0.019 mg/ml, 3 μM probe): Decreases
RFU change (Signal deviation with increasing [Carbohydrate]) ([3]; Amylose 5-0.019 mg/ml, 3 μM probe, spectral analysis, Excitation 300-500, Emission 545): Decreases
carbohydrate can be detected and/or differentiated by the LCO ([3]; Amylose, conclusion from change in signal magnitude and/or shift in λmax): can be detected and/or differentiated
RFU change (Correlation analysis) ([3]; Cellulobiose 5-0.019 mg/ml, 3 μM probe): Unclear
RFU change (Signal deviation with increasing [Carbohydrate]) [3, 10]: Unclear
λmax change [3, 10]: No change
Gradient Parameters (gradient of regression line) [3, 11]: −341.5 ± 47.3
Linear relationship [3, 11]: Significant
Quality of Gradient [3, 11]: Negative
Gradient Parameters (gradient of regression line) [3, 12]: −5.26 ± 4.87
Quality of Gradient [3, 12]: Horizontal
Sensitivity ([3]; to amylose): Yes
Sensitivity ([3]; to cellulobiose): No
RFU change (Correlation analysis) ([4]; Glycogen 5-0.019 mg/ml, 3 μM probe): Increases
RFU change (Signal deviation with increasing [Carbohydrate]) [4, 13]: Increases
λmax change [4, 13]: Redshift
carbohydrate can be detected and/or differentiated by the LCO ([4]; Glycogen, conclusion from change in signal magnitude and/or shift in λmax): can be detected and/or differentiated
RFU change (Correlation analysis) ([4]; Heparin 5-0.019 mg/ml, 3 μM probe): Unclear
RFU change (Signal deviation with increasing [Carbohydrate]) ([4]; Heparin 5-0.019 mg/ml, 3 μM probe, spectral analysis, Excitation 300-500, Emission 545): Decreases
Gradient Parameters (gradient of regression line) ([4]; glycogen concentration vs RFU): 130.6 ± 55.6
Linear relationship ([4]; glycogen concentration vs RFU): Significant
Quality of Gradient ([4]; glycogen concentration vs RFU): Positive
Gradient Parameters (gradient of regression line) ([4]; heparin concentration vs RFU): 26.3 ± 18.5
Linear relationship ([4]; heparin concentration vs RFU): Not Significant
Quality of Gradient ([4]; heparin concentration vs RFU): Horizontal
Sensitivity ([4]; to glycogen): Yes
Sensitivity ([4]; to heparin): No
RFU change (Correlation analysis) ([5]; Glucose 5-0.019 mg/ml, 3 μM probe, probe-specific excitation λ, emission 545 nm): Unclear
RFU change (Signal deviation with increasing [Carbohydrate]) ([5]; Glucose 5-0.019 mg/ml, 3 μM probe, spectral analysis, Excitation 300-500, Emission 545): Increases
Gradient Parameters (gradient of regression line) [5, 14]: 33.2 ± 25.2
Quality of Gradient [5, 14]: Horizontal
Sensitivity ([5]; to glucose): No
RFU change (Correlation analysis) ([6]; Cellulose 10-[…]): Increase
RFU change (Signal deviation with increasing [Carbohydrate]) ([6]; Cellulose 10-[…]): Increase
λmax change ([6]; Cellulose 10-[…]): Redshift
carbohydrate can be detected and/or differentiated by the LCO ([6]; Cellulose): can be detected and/or differentiated
RFU change (Correlation analysis) ([6]; Chitin 10-[…]): Increases
RFU change (Signal deviation with increasing [Carbohydrate]) ([6]; Chitin 10-[…]): Increases
λmax change ([6]; Chitin 10-[…]): Redshift
carbohydrate can be detected and/or differentiated by the LCO ([6]; Chitin): can be detected and/or differentiated
Gradient Parameters (gradient of regression line) ([6]; cellulose concentration vs RFU): 725.9 ± 124.6
Linear relationship ([6]; cellulose concentration vs RFU): Significant
Quality of Gradient ([6]; cellulose concentration vs RFU): Positive
Gradient Parameters (gradient of regression line) ([6]; chitin concentration vs RFU): 117.2 ± 25.7
Linear relationship ([6]; chitin concentration vs RFU): Significant
Quality of Gradient ([6]; chitin concentration vs RFU): Positive
Sensitivity ([6]; to cellulose): Yes
Sensitivity ([6]; to chitin): Yes
Sensitivity ([6]; to β-1,3-glucan): No
RFU change (Correlation analysis) ([6]; β-1,3-glucan 10-[…]): Unclear
RFU change (Signal deviation with increasing [Carbohydrate]) ([6]; β-1,3-glucan 10-[…]): Unclear
Gradient Parameters (gradient of regression line) [6, 15]: −7.071 ± 34
Quality of Gradient [6, 15]: Horizontal
